# Experimental data taken from US20110275559A1, “Long-Acting Y2 and/or Y4 Receptor Agonists” (Novo Nordisk A/S, priority 2008, published 2011).
# Read-outs that look alike come from different tables or passages of the source. *1 amine or outer side, *2 acyl side, *3 side chain or, on linkers, in order; H or OH if unused. Where a SMILES comes first, the peptide text is derived from it. Where no end group is shown, it is not given here. Side-chain parts run from the residue outwards. The star is where a group is joined. C20 diacid = O=C(O)CCCCCCCCCCCCCCCCCCC(=O)*; γGlu = O=C(O)[C@H](CCC(=O)[*:2])N[*:1]; Trx = NC[C@H]1CC[C@H](C(=O)O)CC1; AEEA = NCCOCCOCC(=O)O
# Experiments:
# Y4 receptor = target: T1, Y4 receptor (Homo sapiens, UniProt P50391); experiment: Y4 receptor ACTOne based FLIPR assay (cAMP biosensor); format: cell-based
# T1 construct: host or cells: ACTOne HEK-293 cells
# Source text: (§1) ACTOne™ is an easily scaleable cAMP biosensor HTS platform for measurement of Gs and Gi coupled 7™ receptor signalling from BD Biosciences (San Jose, Calif.). The cells express a biosensor developed around a modified rat olfactory cyclic nucleotide gated (CNG) calcium channel—a fairly non-discriminatory ion channel that responds to cAMP and cGMP. The CNG has been engineered to be cAMP selective and thus function as a cAMP responsive biosensor that signals through calcium or membrane potential responsive dyes. Y2 or Y4 receptor expressing ACTOne HEK-293 cells are obtained from BD Biosciences. The cells are loaded with a calcium responsive dye that only distributes in the cytoplasm. Probenecid, an inhibitor of the organic anion transporter is added to prevent the dye from leaving the cell. A phosphodiesterase inhibitor is added to prevent formatted cAMP from being degraded. Isoproterenol (an β1/β2 agonist) is added to activate the adenylate cyclase. When an Y2 or Y4 receptor agonist is added, the adenylate cyclase is inactivated. The decreased calcium concentration in the cytoplasm is then detected as an increase in fluorescence. Together with the test substance, Isoproterenol at a concentration matching EC80, is added to all wells. • The cells are plated out in Greiner 384-well plates. […] The plates are covered with tinfoil to avoid light (the dye can be excited by the daylight, which results in higher baseline and variation). • The FLIPR (FLIPRtetra from Molecular Devices, CA, USA) adds 1 μl sample and 1 μl isoproterenol (0.05 μM final concentration) at the same time. • The fluorescence signal from the wells is measured 330 seconds after sample addition on the FLIPR.
# [1] = Mini-pig PK assay (plasma half-life); conditions: Göttingen, minipig, iv
# Method in brief: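 Catheterised mini-pigs received compound i.v. at 10 nmol/kg in pH 4.0 phosphate/NaCl/tween vehicle, or alternatively i.v. or s.c. at 1–30 nmol/kg in pH 8.0 K2HPO4/tween. Stabilised plasma was sampled up to 13 days and assayed by LC-MS (LLOQ 2 nM). Half-life came from non-compartmental analysis of individual animal profiles.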
# Y2 receptor = target: T2, Y2 receptor (Homo sapiens, UniProt P49146); experiment: Y2 receptor ACTOne based FLIPR assay (cAMP biosensor); format: cell-based
# T2 construct: host or cells: ACTOne HEK-293 cells
# T2 sequence (P49146 1-381): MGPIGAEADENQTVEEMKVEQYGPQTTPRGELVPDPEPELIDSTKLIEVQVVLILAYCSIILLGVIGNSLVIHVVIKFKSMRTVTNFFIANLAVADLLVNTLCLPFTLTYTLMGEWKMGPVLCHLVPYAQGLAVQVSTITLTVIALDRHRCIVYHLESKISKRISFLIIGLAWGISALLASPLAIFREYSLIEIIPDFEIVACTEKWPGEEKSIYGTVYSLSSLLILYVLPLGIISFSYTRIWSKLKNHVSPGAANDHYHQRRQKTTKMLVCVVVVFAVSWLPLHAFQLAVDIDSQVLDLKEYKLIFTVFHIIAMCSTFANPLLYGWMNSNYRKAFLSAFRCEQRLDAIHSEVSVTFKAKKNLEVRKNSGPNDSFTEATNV
# Source text: as §1
# T1 sequence (P50391 whole entry): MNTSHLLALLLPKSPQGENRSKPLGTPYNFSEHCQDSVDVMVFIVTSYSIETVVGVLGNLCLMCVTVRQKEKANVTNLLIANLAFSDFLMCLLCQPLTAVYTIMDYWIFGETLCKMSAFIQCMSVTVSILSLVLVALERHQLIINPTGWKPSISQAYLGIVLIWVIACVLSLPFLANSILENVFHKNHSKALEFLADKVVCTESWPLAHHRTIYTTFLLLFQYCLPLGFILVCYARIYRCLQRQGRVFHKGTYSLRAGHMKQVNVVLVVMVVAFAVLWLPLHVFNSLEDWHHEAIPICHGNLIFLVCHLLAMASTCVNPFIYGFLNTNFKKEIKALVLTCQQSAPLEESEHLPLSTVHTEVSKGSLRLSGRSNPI
compound,measurement,setting,value
CC[C@H](C)[C@H](NC(=O)[C@H](Cc1ccc(O)cc1)NC(=O)[C@H](CCCNC(=N)N)NC(=O)[C@H](CCCNC(=N)N)NC(=O)[C@H](CC(C)C)NC(=O)[C@H](CC(=O)O)NC(=O)[C@H](C)NC(=O)[C@H](C)NC(=O)[C@H](Cc1ccc(O)cc1)NC(=O)[C@H](CCC(N)=O)NC(=O)[C@H](C)NC(=O)[C@H](CC(C)C)NC(=O)[C@H](CCC(N)=O)NC(=O)[C@H](CCC(=O)O)NC(=O)[C@@H]1CCCN1C(=O)[C@H](CCCCNC(=O)COCCOCCNC(=O)COCCOCCNC(=O)CC[C@H](NC(=O)[C@H]1CC[C@H](CNC(=O)CCCCCCCCCCCCCCCCCCC(=O)O)CC1)C(=O)O)NC(=O)[C@H](C)NC(=O)[C@H](CC(N)=O)NC(=O)[C@H](CC(=O)O)NC(=O)CNC(=O)[C@@H]1CCCN1C(=O)[C@H](Cc1ccc(O)cc1)NC(=O)[C@@H](NC(=O)[C@@H]1CCCN1C(=O)[C@H](CCC(=O)O)NC(=O)[C@H](CC(C)C)NC(=O)[C@@H]1CCCN1C(=O)[C@H](C)N)C(C)C)C(=O)N[C@@H](CC(N)=O)C(=O)N[C@@H](CC(C)C)C(=O)N[C@@H](CC(C)C)C(=O)N[C@H](C(=O)N[C@@H](CCCNC(=N)N)C(=O)N[C@@H](CCC(N)=O)C(=O)N[C@@H](CCCNC(=N)N)C(=O)N[C@@H](Cc1ccc(O)cc1)C(N)=O)[C@@H](C)O [SEQ ID NO: 4] (H-APLEPVYPGDNAK([AEEA-AEEA-γGlu-Trx-C20 diacid])PEQLAQYAADLRRYINLLTRQRY-NH2; N-terminus and C-terminus assumed),EC50,Y4 receptor,0.018 µM
"CC[C@H](C)[C@H](NC(=O)[C@H](Cc1ccc(O)cc1)NC(=O)[C@H](CCCNC(=N)N)NC(=O)[C@H](CCCNC(=N)N)NC(=O)[C@H](CC(C)C)NC(=O)[C@H](CC(=O)O)NC(=O)[C@H](C)NC(=O)[C@H](C)NC(=O)[C@H](Cc1ccc(O)cc1)NC(=O)[C@H](CCC(N)=O)NC(=O)[C@H](C)NC(=O)[C@H](CC(C)C)NC(=O)[C@H](CCC(N)=O)NC(=O)[C@H](CCC(=O)O)NC(=O)[C@@H]1CCCN1C(=O)[C@H](CCCCNC(=O)COCCOCCNC(=O)COCCOCCNC(=O)CC[C@H](NC(=O)[C@H]1CC[C@H](CNC(=O)CCCCCCCCCCCCCCCCCCC(=O)O)CC1)C(=O)O)NC(=O)[C@H](C)NC(=O)[C@H](CC(=O)O)NC(=O)[C@H](CC(N)=O)NC(=O)CNC(=O)[C@@H]1CCCN1C(=O)[C@H](Cc1ccc(O)cc1)NC(=O)[C@@H](NC(=O)[C@@H]1CCCN1C(=O)[C@H](CCC(=O)O)NC(=O)[C@H](CC(C)C)NC(=O)[C@@H]1CCCN1C(=O)[C@H](C)N)C(C)C)C(=O)N[C@@H](CC(N)=O)C(=O)N[C@@H](CC(C)C)C(=O)N[C@H](C(=O)N[C@H](C(=O)N[C@@H](CCCNC(=N)N)C(=O)N1CCC[C@H]1C(=O)N[C@@H](CCCNC(=N)N)C(=O)N[C@@H](Cc1ccc(O)cc1)C(N)=O)[C@@H](C)O)C(C)C [SEQ ID NO: 14, N-epsilon13-[2-(2-{2-[2-(2-{2-[(S)-4-Carboxy-4-({trans-4-[(19-carboxynonadecanoylamino)methyl]cyclohexanecarbonyl}amino)butyrylamino]-eth-oxy}ethoxy)acetylamino]ethoxy}ethoxy)acetyl][Asn10,Asp11,Lys13,Leu17,Leu30,Val31]hPP(1-36)] (H-APLEPVYPGNDAK([AEEA-AEEA-γGlu-Trx-C20 diacid])PEQLAQYAADLRRYINLVTRPRY-NH2; N-terminus and C-terminus assumed)",EC50,Y4 receptor,0.018 µM
"CC(C)C[C@H](NC(=O)[C@H](CCC(N)=O)NC(=O)[C@H](CCC(=O)O)NC(=O)[C@@H]1CCCN1C(=O)[C@H](CCCCNC(=O)COCCOCCNC(=O)COCCOCCNC(=O)CC[C@H](NC(=O)[C@H]1CC[C@H](CNC(=O)CCCCCCCCCCCCCCCCCCC(=O)O)CC1)C(=O)O)NC(=O)[C@H](C)NC(=O)[C@H](CC(N)=O)NC(=O)[C@H](CC(=O)O)NC(=O)CNC(=O)[C@@H]1CCCN1C(=O)[C@H](Cc1ccc(O)cc1)NC(=O)[C@@H](NC(=O)[C@@H]1CCCN1C(=O)[C@H](CCC(=O)O)NC(=O)[C@H](CC(C)C)NC(=O)[C@@H]1CCCN1C(=O)[C@H](C)N)C(C)C)C(=O)N[C@@H](C)C(=O)N[C@@H](CCC(N)=O)C(=O)N[C@@H](Cc1ccc(O)cc1)C(=O)N[C@@H](C)C(=O)N[C@@H](C)C(=O)N[C@@H](CC(=O)O)C(=O)N[C@@H](CC(C)C)C(=O)N[C@@H](CCCNC(=N)N)C(=O)N[C@@H](CCCNC(=N)N)C(=O)N[C@@H](Cc1ccc(O)cc1)C(=O)N[C@@H](CC(C)C)C(=O)N[C@@H](CC(N)=O)C(=O)N[C@H](C(=O)N[C@@H](CC(C)C)C(=O)N[C@H](C(=O)N[C@@H](CCCNC(=N)N)C(=O)N[C@@H](CCC(N)=O)C(=O)N[C@@H](CCCNC(=N)N)C(=O)N[C@@H](Cc1ccc(O)cc1)C(N)=O)[C@@H](C)O)C(C)C [SEQ ID NO: 15, N-epsilon13-[2-(2-{2-[2-(2-{2-[(S)-4-Carboxy-4-({trans-4-[(19-carboxynonadecanoylamino)methyl]cyclohexanecarbonyl}amino)butyrylamino]-eth-oxy}ethoxy)acetylamino]ethoxy}ethoxy)acetyl][Lys13,Leu17,Leu28,Val30,Gln34]hPP(1-36)] (H-APLEPVYPGDNAK([AEEA-AEEA-γGlu-Trx-C20 diacid])PEQLAQYAADLRRYLNVLTRQRY-NH2; N-terminus and C-terminus assumed)",EC50,Y4 receptor,0.007 µM
"CC[C@H](C)[C@H](NC(=O)[C@H](Cc1ccc(O)cc1)NC(=O)[C@H](CCCNC(=N)N)NC(=O)[C@H](CCCNC(=N)N)NC(=O)[C@H](CC(C)C)NC(=O)[C@H](CC(=O)O)NC(=O)[C@H](C)NC(=O)[C@H](C)NC(=O)[C@H](Cc1ccc(O)cc1)NC(=O)[C@H](CCC(N)=O)NC(=O)[C@H](C)NC(=O)[C@H](CC(C)C)NC(=O)[C@H](CCC(N)=O)NC(=O)[C@H](CCC(=O)O)NC(=O)[C@@H]1CCCN1C(=O)[C@@H](NC(=O)[C@H](C)NC(=O)[C@H](CC(N)=O)NC(=O)[C@H](CC(=O)O)NC(=O)CNC(=O)[C@@H]1CCCN1C(=O)[C@H](Cc1ccc(O)cc1)NC(=O)[C@@H](NC(=O)[C@@H]1CCCN1C(=O)[C@H](CCC(=O)O)NC(=O)[C@H](CC(C)C)NC(=O)[C@@H]1CCCN1C(=O)[C@H](C)NC(=O)COCCOCCNC(=O)COCCOCCNC(=O)CC[C@H](NC(=O)[C@H]1CC[C@H](CNC(=O)CCCCCCCCCCCCCCCCCCC(=O)O)CC1)C(=O)O)C(C)C)[C@@H](C)O)C(=O)N[C@@H](CC(N)=O)C(=O)N[C@@H](CC(C)C)C(=O)N[C@@H](CC(C)C)C(=O)N[C@H](C(=O)N[C@@H](CCCNC(=N)N)C(=O)N1CCC[C@H]1C(=O)N[C@@H](CCCNC(=N)N)C(=O)N[C@@H](Cc1ccc(O)cc1)C(N)=O)[C@@H](C)O [SEQ ID NO: 75, N-alfa-[2-(2-{2-[2-(2-{2-[(S)-4-Carboxy-4-({trans-4-[(19-carboxynonadecanoylamino)methyl]cyclohexanecarbonyl}amino)butyrylamino]-ethoxy}ethoxy)acetylamino]ethoxy}ethoxy)acetyl][Leu17,Leu30]hPP1-36] ({C20 diacid-Trx-γGlu-AEEA-AEEA}-APLEPVYPGDNATPEQLAQYAADLRRYINLLTRPRY-NH2; C-terminus assumed)",half-life,"[1]; in vivo, 10 nmol/kg",48 h
same,EC50,Y2 receptor,> 1 µM
"PLEPVYPGDNATPEQLAQYAADLRRYINLLTRPRY-NH2 (C-terminus assumed) [SEQ ID NO: 73, [Leu17,Leu30]hPP2-36, reference compound]",half-life,[1]; 50 nmol/kg,0.55 h
same,EC50,"Y2 receptor; Table 2, PP analogues, ACTOne HEK-293 cells, read-out: Y2 cAMP EC50",> 1 µM
